Here are results for three compounds from the kinase profiling compilation of Christmann-Franck et al. (2016).

Usually residual activity stands for the signal under treatment as a percentage of the control signal.

The structures appear in SMILES notation.

PAK3 (human), sequence (O75914 whole entry, looked up): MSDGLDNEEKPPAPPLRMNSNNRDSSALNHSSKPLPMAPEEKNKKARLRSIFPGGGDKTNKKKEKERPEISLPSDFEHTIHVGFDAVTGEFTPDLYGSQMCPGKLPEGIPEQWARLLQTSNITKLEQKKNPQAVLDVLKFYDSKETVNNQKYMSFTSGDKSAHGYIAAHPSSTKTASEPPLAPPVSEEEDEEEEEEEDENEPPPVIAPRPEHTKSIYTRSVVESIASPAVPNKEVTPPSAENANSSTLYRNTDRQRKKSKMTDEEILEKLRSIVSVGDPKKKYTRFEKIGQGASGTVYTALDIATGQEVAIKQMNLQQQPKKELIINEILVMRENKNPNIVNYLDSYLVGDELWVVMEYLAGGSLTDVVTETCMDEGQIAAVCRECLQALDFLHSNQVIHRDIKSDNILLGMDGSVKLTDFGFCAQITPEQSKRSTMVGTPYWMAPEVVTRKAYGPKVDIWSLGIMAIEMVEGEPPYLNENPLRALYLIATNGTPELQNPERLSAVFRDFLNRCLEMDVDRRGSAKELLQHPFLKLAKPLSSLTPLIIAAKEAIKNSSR
RPS6KA1 KD1 KD2 (human), sequence (Q15418 whole entry, looked up): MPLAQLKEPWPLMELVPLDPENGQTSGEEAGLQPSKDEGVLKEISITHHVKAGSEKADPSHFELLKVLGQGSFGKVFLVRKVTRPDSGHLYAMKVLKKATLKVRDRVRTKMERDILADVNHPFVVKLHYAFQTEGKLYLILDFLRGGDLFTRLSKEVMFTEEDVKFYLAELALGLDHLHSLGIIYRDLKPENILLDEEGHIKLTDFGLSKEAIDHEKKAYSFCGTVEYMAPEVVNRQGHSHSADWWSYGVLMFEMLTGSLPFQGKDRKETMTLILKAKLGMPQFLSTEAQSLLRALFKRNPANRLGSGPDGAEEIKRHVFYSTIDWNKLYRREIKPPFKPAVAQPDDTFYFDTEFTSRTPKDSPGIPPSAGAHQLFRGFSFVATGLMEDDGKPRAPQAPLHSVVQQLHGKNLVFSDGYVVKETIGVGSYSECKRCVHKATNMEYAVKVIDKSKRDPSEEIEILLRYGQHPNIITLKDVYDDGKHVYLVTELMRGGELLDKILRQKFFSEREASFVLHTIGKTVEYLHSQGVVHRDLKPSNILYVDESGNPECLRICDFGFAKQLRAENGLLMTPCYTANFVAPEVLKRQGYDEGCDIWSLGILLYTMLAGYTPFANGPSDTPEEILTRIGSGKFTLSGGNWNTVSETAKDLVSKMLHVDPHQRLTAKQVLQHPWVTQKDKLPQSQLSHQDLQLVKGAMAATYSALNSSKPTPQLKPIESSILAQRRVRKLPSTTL

One test addresses IRAK4 (human) (UniProt Q9NWZ3). In words: radiometric filter-binding kinase assay, Kinase HotSpot. The following applies: compound 0.5 µM; ATP 10 µM.
Consider `O=C(O)/C=C/c1cc(Br)c(Br)c(Br)c1Br`, for which the residual activity was 86.6%.

As to `Cn1cnc2cc3c(Nc4cccc(Br)c4)ncnc3cc21`, the residual activity turned out to be 89.1%.

On to `O=C1Nc2ccccc2/C1=C1\Nc2ccccc2\C1=N/O`, for which the residual activity was determined as 102%.

Another test concerns the target PASK (human) (UniProt Q96RG2). Described as above. Conditions: compound 0.5 µM; ATP 10 µM.
For `O=C(O)/C=C/c1cc(Br)c(Br)c(Br)c1Br`, the residual activity was found to be 24.8%.

Turning to `Cn1cnc2cc3c(Nc4cccc(Br)c4)ncnc3cc21`, the residual activity was determined as 89.8%.

Take `O=C1Nc2ccccc2/C1=C1\Nc2ccccc2\C1=N/O`: the residual activity is 94.1%.

The target of a further test is TAOK1 (human) (UniProt Q7L7X3). The description is as above. Conditions: compound 0.5 µM; ATP 10 µM.
TAOK1 (human), sequence (Q7L7X3 whole entry, looked up): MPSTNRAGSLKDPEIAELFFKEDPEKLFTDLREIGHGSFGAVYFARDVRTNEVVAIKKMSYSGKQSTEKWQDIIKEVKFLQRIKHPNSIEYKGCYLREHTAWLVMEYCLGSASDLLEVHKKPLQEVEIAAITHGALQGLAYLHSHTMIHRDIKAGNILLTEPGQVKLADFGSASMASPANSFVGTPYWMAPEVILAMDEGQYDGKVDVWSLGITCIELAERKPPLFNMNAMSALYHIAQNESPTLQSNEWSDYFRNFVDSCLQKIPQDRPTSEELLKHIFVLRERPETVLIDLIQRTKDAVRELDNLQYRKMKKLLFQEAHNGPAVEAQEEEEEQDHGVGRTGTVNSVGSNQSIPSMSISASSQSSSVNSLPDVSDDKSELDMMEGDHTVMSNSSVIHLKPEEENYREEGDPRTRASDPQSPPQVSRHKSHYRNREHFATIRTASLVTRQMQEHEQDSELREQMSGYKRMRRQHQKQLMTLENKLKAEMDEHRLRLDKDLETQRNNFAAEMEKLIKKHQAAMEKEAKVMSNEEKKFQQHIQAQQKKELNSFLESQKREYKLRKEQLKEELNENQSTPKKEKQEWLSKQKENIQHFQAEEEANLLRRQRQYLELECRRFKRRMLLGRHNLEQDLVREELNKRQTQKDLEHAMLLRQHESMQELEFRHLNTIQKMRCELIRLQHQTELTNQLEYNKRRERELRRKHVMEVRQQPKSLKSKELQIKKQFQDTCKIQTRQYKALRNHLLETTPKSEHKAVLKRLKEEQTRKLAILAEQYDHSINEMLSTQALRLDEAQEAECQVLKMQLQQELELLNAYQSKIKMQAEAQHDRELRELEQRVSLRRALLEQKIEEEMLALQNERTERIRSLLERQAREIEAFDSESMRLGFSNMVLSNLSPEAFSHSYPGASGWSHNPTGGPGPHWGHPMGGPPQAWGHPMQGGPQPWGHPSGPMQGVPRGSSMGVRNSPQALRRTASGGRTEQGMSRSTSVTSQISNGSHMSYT
`O=C(O)/C=C/c1cc(Br)c(Br)c(Br)c1Br`: the residual activity amounted to 56.3%.

On to `Cn1cnc2cc3c(Nc4cccc(Br)c4)ncnc3cc21`, for which the residual activity was 92.4%.

On to `O=C1Nc2ccccc2/C1=C1\Nc2ccccc2\C1=N/O`, for which the residual activity amounted to 102%.

The target in the next test is AKT3 (human) (UniProt Q9Y243). The test is described as above. Conditions: compound 0.5 µM; ATP 10 µM.
Turning to `O=C(O)/C=C/c1cc(Br)c(Br)c(Br)c1Br`, the residual activity was 92.7%.

Regarding `Cn1cnc2cc3c(Nc4cccc(Br)c4)ncnc3cc21`, the residual activity amounted to 89.5%.

For `O=C1Nc2ccccc2/C1=C1\Nc2ccccc2\C1=N/O`, the residual activity came to 98.8%.

For a further test, the target named is TEC (human) (UniProt P42680). Described as above. The following applies: compound 0.5 µM; ATP 10 µM.
`O=C(O)/C=C/c1cc(Br)c(Br)c(Br)c1Br`: the residual activity is 107%.

For the compound `Cn1cnc2cc3c(Nc4cccc(Br)c4)ncnc3cc21`, the residual activity came out at 123%.

On to `O=C1Nc2ccccc2/C1=C1\Nc2ccccc2\C1=N/O`, for which the residual activity is 105%.

A further test addresses PAK3 (human) (UniProt O75914). The test is described as above. Conditions: compound 0.5 µM; ATP 10 µM.
On to `O=C(O)/C=C/c1cc(Br)c(Br)c(Br)c1Br`, for which the residual activity stood at 100%.

Regarding `Cn1cnc2cc3c(Nc4cccc(Br)c4)ncnc3cc21`, the residual activity turned out to be 98.5%.

On to `O=C1Nc2ccccc2/C1=C1\Nc2ccccc2\C1=N/O`, for which the residual activity worked out at 92.6%.

In a further test the target is CAMK4 (human) (UniProt Q16566). The test is described as above. The following applies: compound 0.5 µM; ATP 10 µM.
`O=C(O)/C=C/c1cc(Br)c(Br)c(Br)c1Br`: the residual activity amounted to 103%.

Take `Cn1cnc2cc3c(Nc4cccc(Br)c4)ncnc3cc21`: the residual activity turned out to be 98.6%.

`O=C1Nc2ccccc2/C1=C1\Nc2ccccc2\C1=N/O`: the residual activity was found to be 97.4%.

The next test has as its target CLK3 (human) (UniProt P49761). The test is described as above. The following applies: compound 0.5 µM; ATP 10 µM.
For the compound `O=C(O)/C=C/c1cc(Br)c(Br)c(Br)c1Br`, the residual activity came to 96.1%.

On to `Cn1cnc2cc3c(Nc4cccc(Br)c4)ncnc3cc21`, for which the residual activity came to 100%.

Regarding `O=C1Nc2ccccc2/C1=C1\Nc2ccccc2\C1=N/O`, the residual activity was determined as 48.2%.

The next test deals with JAK1 JH1 catalytic (human) (UniProt P23458). The description is as above. Conditions: compound 0.5 µM; ATP 10 µM.
On to `O=C(O)/C=C/c1cc(Br)c(Br)c(Br)c1Br`, for which the residual activity turned out to be 98.8%.

As to `Cn1cnc2cc3c(Nc4cccc(Br)c4)ncnc3cc21`, the residual activity was determined as 96.4%.

For the compound `O=C1Nc2ccccc2/C1=C1\Nc2ccccc2\C1=N/O`, the residual activity was 63.4%.

For the next test, the target named is KDR (human) (UniProt P35968). Described as above. The following applies: compound 0.5 µM; ATP 10 µM.
KDR (human), sequence (P35968 whole entry, looked up): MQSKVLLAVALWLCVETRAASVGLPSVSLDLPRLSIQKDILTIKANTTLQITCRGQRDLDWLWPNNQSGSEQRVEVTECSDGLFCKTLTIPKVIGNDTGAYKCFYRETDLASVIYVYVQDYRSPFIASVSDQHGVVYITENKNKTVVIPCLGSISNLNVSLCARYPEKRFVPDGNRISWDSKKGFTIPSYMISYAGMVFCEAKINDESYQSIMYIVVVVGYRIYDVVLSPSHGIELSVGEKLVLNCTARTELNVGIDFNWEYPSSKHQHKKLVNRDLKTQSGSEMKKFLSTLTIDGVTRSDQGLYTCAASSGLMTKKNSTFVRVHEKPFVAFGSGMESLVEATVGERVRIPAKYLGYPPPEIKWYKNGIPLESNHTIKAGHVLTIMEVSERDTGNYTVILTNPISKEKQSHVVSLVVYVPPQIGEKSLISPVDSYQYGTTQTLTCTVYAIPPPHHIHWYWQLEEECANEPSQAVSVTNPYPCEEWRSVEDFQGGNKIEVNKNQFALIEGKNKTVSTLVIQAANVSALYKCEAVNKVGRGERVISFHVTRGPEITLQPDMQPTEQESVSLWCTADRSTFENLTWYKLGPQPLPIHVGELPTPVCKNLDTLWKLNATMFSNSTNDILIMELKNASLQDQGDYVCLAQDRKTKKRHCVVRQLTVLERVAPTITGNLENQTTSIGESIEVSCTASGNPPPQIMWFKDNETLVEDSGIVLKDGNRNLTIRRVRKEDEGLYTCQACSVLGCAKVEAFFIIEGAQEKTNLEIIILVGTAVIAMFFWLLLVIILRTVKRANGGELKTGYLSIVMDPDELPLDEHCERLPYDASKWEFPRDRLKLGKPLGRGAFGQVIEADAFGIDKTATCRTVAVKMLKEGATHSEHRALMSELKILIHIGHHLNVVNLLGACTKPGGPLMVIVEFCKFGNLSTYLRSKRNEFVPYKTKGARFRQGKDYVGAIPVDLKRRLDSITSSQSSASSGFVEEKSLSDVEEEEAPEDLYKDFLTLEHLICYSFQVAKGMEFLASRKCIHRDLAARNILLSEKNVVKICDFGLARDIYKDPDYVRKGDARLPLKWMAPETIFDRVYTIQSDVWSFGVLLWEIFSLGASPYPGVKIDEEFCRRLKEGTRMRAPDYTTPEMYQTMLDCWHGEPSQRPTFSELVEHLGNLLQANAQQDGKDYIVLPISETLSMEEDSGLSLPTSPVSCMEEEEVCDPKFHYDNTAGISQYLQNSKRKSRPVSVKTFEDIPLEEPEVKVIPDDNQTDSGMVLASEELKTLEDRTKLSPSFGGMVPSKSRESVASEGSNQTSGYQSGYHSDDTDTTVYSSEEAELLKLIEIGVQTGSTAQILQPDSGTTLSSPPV
As for `O=C(O)/C=C/c1cc(Br)c(Br)c(Br)c1Br`, the residual activity stood at 90.1%.

As for `Cn1cnc2cc3c(Nc4cccc(Br)c4)ncnc3cc21`, the residual activity was 71.7%.

In the case of `O=C1Nc2ccccc2/C1=C1\Nc2ccccc2\C1=N/O`, the residual activity was 72.9%.

In another test the target is TTK (human) (UniProt P33981). The test is described as above. The following applies: compound 0.5 µM; ATP 10 µM.
Turning to `O=C(O)/C=C/c1cc(Br)c(Br)c(Br)c1Br`, the residual activity came to 98.1%.

For the compound `Cn1cnc2cc3c(Nc4cccc(Br)c4)ncnc3cc21`, the residual activity was 95.7%.

For the compound `O=C1Nc2ccccc2/C1=C1\Nc2ccccc2\C1=N/O`, the residual activity turned out to be 68%.

A further test deals with ROS1 (human) (UniProt P08922). The test is described as above. The following applies: compound 0.5 µM; ATP 10 µM.
`O=C(O)/C=C/c1cc(Br)c(Br)c(Br)c1Br`: the residual activity stood at 94%.

As for `Cn1cnc2cc3c(Nc4cccc(Br)c4)ncnc3cc21`, the residual activity turned out to be 99.9%.

Regarding `O=C1Nc2ccccc2/C1=C1\Nc2ccccc2\C1=N/O`, the residual activity was found to be 65.6%.

The target in a further test is PDGFRB (human) (UniProt P09619). The description is as above. The following applies: compound 0.5 µM; ATP 10 µM.
Take `O=C(O)/C=C/c1cc(Br)c(Br)c(Br)c1Br`: the residual activity was determined as 96%.

`Cn1cnc2cc3c(Nc4cccc(Br)c4)ncnc3cc21`: the residual activity was determined as 99.7%.

As to `O=C1Nc2ccccc2/C1=C1\Nc2ccccc2\C1=N/O`, the residual activity turned out to be 72.6%.

The target of another test is SRMS (human) (UniProt Q9H3Y6). Described as above. Conditions: compound 0.5 µM; ATP 10 µM.
`O=C(O)/C=C/c1cc(Br)c(Br)c(Br)c1Br`: the residual activity was 89.3%.

Consider `Cn1cnc2cc3c(Nc4cccc(Br)c4)ncnc3cc21`, for which the residual activity is 84%.

Regarding `O=C1Nc2ccccc2/C1=C1\Nc2ccccc2\C1=N/O`, the residual activity turned out to be 102%.

In a further test the target is MAP4K4 (human) (UniProt O95819). The test is described as above. The following applies: compound 0.5 µM; ATP 10 µM.
MAP4K4 (human), sequence (O95819 whole entry, looked up): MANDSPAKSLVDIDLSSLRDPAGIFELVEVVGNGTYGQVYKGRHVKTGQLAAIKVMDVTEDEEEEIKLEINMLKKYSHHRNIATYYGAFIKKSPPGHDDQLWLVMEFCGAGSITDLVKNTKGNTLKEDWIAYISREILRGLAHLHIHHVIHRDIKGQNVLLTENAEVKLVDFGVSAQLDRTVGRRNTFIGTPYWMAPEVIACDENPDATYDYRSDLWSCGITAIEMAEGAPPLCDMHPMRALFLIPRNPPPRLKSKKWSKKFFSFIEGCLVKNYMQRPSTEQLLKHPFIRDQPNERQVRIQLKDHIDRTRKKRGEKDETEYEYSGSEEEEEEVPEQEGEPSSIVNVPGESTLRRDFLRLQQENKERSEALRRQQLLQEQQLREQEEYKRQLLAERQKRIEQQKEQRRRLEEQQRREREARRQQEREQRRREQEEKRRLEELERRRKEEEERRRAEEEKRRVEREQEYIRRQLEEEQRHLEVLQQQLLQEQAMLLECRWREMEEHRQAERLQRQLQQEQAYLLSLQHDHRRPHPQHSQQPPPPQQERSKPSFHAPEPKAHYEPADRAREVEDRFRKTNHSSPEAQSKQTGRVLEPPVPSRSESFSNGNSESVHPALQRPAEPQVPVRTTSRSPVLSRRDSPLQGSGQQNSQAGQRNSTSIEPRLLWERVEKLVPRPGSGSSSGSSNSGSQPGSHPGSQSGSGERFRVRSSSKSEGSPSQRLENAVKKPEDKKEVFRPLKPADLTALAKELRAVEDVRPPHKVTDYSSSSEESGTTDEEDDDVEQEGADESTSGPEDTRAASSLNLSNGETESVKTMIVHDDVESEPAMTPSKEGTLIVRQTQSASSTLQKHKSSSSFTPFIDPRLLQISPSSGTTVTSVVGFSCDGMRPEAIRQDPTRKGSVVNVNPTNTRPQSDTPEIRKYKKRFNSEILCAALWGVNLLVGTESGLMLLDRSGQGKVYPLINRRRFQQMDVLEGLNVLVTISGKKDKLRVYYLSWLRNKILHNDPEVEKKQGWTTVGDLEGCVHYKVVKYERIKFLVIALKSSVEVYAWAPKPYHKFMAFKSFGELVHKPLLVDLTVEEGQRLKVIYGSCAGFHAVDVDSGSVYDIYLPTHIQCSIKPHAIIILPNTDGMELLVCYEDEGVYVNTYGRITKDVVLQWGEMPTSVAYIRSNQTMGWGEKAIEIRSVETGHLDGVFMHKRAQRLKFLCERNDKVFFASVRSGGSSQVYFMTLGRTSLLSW
As for `O=C(O)/C=C/c1cc(Br)c(Br)c(Br)c1Br`, the residual activity came to 63.5%.

As to `Cn1cnc2cc3c(Nc4cccc(Br)c4)ncnc3cc21`, the residual activity turned out to be 52.1%.

As to `O=C1Nc2ccccc2/C1=C1\Nc2ccccc2\C1=N/O`, the residual activity turned out to be 42%.

The next test concerns the target TBK1 (human) (UniProt Q9UHD2). The test is described as above. The following applies: compound 0.5 µM; ATP 10 µM.
Regarding `O=C(O)/C=C/c1cc(Br)c(Br)c(Br)c1Br`, the residual activity came out at 91.4%.

Consider `Cn1cnc2cc3c(Nc4cccc(Br)c4)ncnc3cc21`, for which the residual activity came to 87.7%.

For the compound `O=C1Nc2ccccc2/C1=C1\Nc2ccccc2\C1=N/O`, the residual activity is 53.6%.

A further test has as its target RPS6KA1 KD1 KD2 (human) (UniProt Q15418). Described as above. The following applies: compound 0.5 µM; ATP 10 µM.
Take `O=C(O)/C=C/c1cc(Br)c(Br)c(Br)c1Br`: the residual activity worked out at 90.5%.

`Cn1cnc2cc3c(Nc4cccc(Br)c4)ncnc3cc21`: the residual activity is 103%.

For `O=C1Nc2ccccc2/C1=C1\Nc2ccccc2\C1=N/O`, the residual activity was 39.6%.

Another test addresses TNK2 (human) (UniProt Q07912). Described as above. The following applies: compound 0.5 µM; ATP 10 µM.
In the case of `O=C(O)/C=C/c1cc(Br)c(Br)c(Br)c1Br`, the residual activity was 110%.

For the compound `Cn1cnc2cc3c(Nc4cccc(Br)c4)ncnc3cc21`, the residual activity came out at 87.3%.

`O=C1Nc2ccccc2/C1=C1\Nc2ccccc2\C1=N/O`: the residual activity stood at 40.6%.

The next test deals with DAPK3 (human) (UniProt O43293). The test is described as above. The following applies: compound 0.5 µM; ATP 10 µM.
For `O=C(O)/C=C/c1cc(Br)c(Br)c(Br)c1Br`, the residual activity was determined as 90.2%.

Consider `Cn1cnc2cc3c(Nc4cccc(Br)c4)ncnc3cc21`, for which the residual activity was 93.7%.

In the case of `O=C1Nc2ccccc2/C1=C1\Nc2ccccc2\C1=N/O`, the residual activity stood at 94.4%.

Another test concerns the target PRKCA (human) (UniProt P17252). Described as above. Conditions: compound 0.5 µM; ATP 10 µM.
For the compound `O=C(O)/C=C/c1cc(Br)c(Br)c(Br)c1Br`, the residual activity was 79%.

For the compound `Cn1cnc2cc3c(Nc4cccc(Br)c4)ncnc3cc21`, the residual activity worked out at 79%.

With `O=C1Nc2ccccc2/C1=C1\Nc2ccccc2\C1=N/O`, the residual activity turned out to be 97.7%.

A further test deals with MST1R (human) (UniProt Q04912). Described as above. Conditions: compound 0.5 µM; ATP 10 µM.
With `O=C(O)/C=C/c1cc(Br)c(Br)c(Br)c1Br`, the residual activity came to 87.1%.

`Cn1cnc2cc3c(Nc4cccc(Br)c4)ncnc3cc21`: the residual activity is 96.5%.

As to `O=C1Nc2ccccc2/C1=C1\Nc2ccccc2\C1=N/O`, the residual activity is 103%.
